Measured values from patent US6992095B2, “Stilbene compounds comprising an adamantyl group, compositions and methods thereof” (Galderma Research & Development, S.N.C., priority 1996, dated 2006).
Like-named read-outs stand apart in the source and are kept apart here.

System: mouse embryonic teratocarcinoma F9 cells
Test: mouse embryonic teratocarcinoma F9 cell differentiation test (antagonist activity)
Format: cell-based
Details: inhibition by 50% of agonist effect on secretion of plasminogen activator, CD 2043 at 10 nM, incubation for three days, read-out: Antagonist against CD 2043 (10 nM) F9 differentiation test IC50
From the text: The compounds according to the invention show activity in the test of differentiation of mouse embryonic teratocarcinoma cells (F9) (Cancer Research, 43, 5268 (1983)) and/or in the test of inhibition of ornithine decarboxylase after induction with TPA in mice (Cancer Research, 38, 793–801 (1978)). These tests show the activities of these compounds in the fields of cell differentiation and cell proliferation, respectively. In the test of cell (F9) differentiation, […] to retinoic acid receptors. […] Some of these compounds are thus also active in a test which is used to identify molecules which are RAR antagonists, as described in French patent application No. 95/07302 filed on 19 Jun. 1995 by the same Assignee as the present invention, which is incorporated by reference in its entirety herein. […] Thus, the response to a topical application, to the ear of a mammal, of an RAR-agonist molecule, which corresponds to an increase in the thickness of this ear, may be inhibited by the systemic or topical administration of an RAR-antagonist molecule. In addition, some of these compounds may provide synergism to the biological activity of products binding to the nuclear receptors.
The antagonist activity of the compounds of formula (I) was evaluated in the mouse embryonic teratocarcinoma F9 cell differentiation test, (Cancer Research, 43, 5268 (1983)).
The F9 cells were inoculated in 12-well clusters, the compounds were tested at from 10^−9 to 10^−5 M in the presence of all-trans-retinoic acid or of a synthetic agonist retinoid, 4-(5,6,7,8-tetrahydro-5,5,8,8-tetramethyl-2-naphthylaminomethyl)benzoic acid (CD 2043), at 10^−8 M. After incubation for three days, the morphological observations were carried out and the concentration of the test compound which inhibits the agonist effect on the secretion of the plasminogen activator by 50% (IC50) was determined.

Compound	IC50	IC50 (Mus musculus, F9, 72 h)
COCCOCOc1ccc(/C(C)=C/c2ccc(C(=O)O)nc2)cc1C12CC3CC(CC(C3)C1)C2 [Example 7, 5-{2-[3-Adamant-1-yl-4-(2-methoxyethoxymethoxy)-phenyl]proxpen-(E)-yl}pyridine-2-carboxylic acid]	0.6 µM	
COCCOCOc1ccc(/C(C)=C/c2ccc(C(=O)O)cc2)cc1C12CC3CC(CC(C3)C1)C2 [Example 4, 4-[(E)-2-(3-(1-Adamantyl)-4-methoxyethoxymethoxy-phenyl)-1-propenyl]benzoic acid]		0.009 µM
COCCOCOc1ccc(/C=C/c2ccc(C(=O)O)cc2)cc1C12CC3CC(CC(C3)C1)C2 [Example 2, 4-[(E)-2-(3-(1-Adamantyl)-4-methoxyethoxymethoxy-phenyl)ethenyl]benzoic acid]		0.31 µM
COCCOCOc1ccc(/C(C)=C/c2ccc(C(=O)O)cn2)cc1C12CC3CC(CC(C3)C1)C2 [Example 10, 6-{2-[3-Adamant-1-yl-4-(2-methoxyethoxymethoxy)-phenyl]proven-(E)-yl}nicotinic acid]	0.035 µM	
COCCOCOc1ccc(/C(C)=C\c2ccc(C(=O)O)cc2)cc1C12CC3CC(CC(C3)C1)C2 [Example 5, 4-[(Z)-2-(3-(1-Adamantyl)-4-methoxyethoxymethoxy-phenyl)-1-prorenyl]benzoic acid]	0.63 µM	
